Earlier results on three compounds are cited in US20100120075A1, “Composition and a method for suppressing the luminescence intensity decline in a luciferin-luciferase reaction” (priority 2008, published 2010).

The test system of this data set is Gaussia luciferase.

For `CCCCCCCCCCCCOS(=O)(=O)[O-].[Na+]` [sodium dodecyl sulfate], the “deactivation of the luciferase” value is given as “deactivated the luciferase” and the “suppression of reaction time-dependent decline in luminescent intensity” value (“suppression” for short) is “did not suppress the decline”.
As to “nonyl phenoxylpolyethoxylethanol [NP-40]”, the “suppression” value is “suppressed”.
For “polyoxyethylene octyl phenyl ether [Triton X-100]”, the “suppression” value is “suppressed”.
